SMILES strings stand for the structures. Calls of active or inactive are those of the source. No cut-off for these calls is given here.

Assay [1] can be described thus: Induction of H2S release in PBS at pH 7.4 at 100 uM measured upto 60 mins by methylene blue method. In kind it is functional.
For assay [2], the system named is H9c2. As to the kind of experiment: Induction of H2S release in rat H9c2 cells incubated for 24 hrs by AzMC probe based analysis. The settings on record: dose 1.25-10 µM. In kind it is functional, cell-based.
A further assay has as its system Rattus norvegicus. The assay is described as follows: Cardioprotective activity in myocardial ischemia Sprague-Dawley rat model assessed as decrease in ISO-induced ST segment at 10 to 30 mg/kg, IG treated for 7 days consecutively followed by ISO administration daily for 2 days consecutively by ECG analysis. In kind it is functional, organism-based. The settings on record: dose 10-30 mg/kg, time 9.0 day.

Assay [3] concerns H9c2. The assay is described as follows: Cardioprotective activity against CoCl2-induced cellular hypoxia injury in rat H9c2 cells assessed as ROS accumulation at 10 uM incubated for 24 hrs by DCFH-DA probe based analysis (reference value: 28.03 %). In kind it is functional.
The test system of assay [4] is H9c2. As to the kind of experiment: Cardioprotective activity against CoCl2-induced cellular hypoxia injury in rat H9c2 cells assessed as preservation of nuclear morphology at 5 to 10 uM incubated for 24 hrs by Hoechst 33258 nuclear staining based analysis. In kind it is functional, cell-based. Particulars: dose 5-10 µM.
In assay [5] the test system is H9c2. As to the kind of experiment: Antioxidant activity against CoCl2-induced cellular hypoxia injury in rat H9c2 cells assessed as decrease in hypoxia-induced LDH release at 5 to 10 uM incubated for 24 hrs. In kind it is functional, cell-based. The settings on record: dose 5-10 µM. On the technique in general: LDH in the medium is a marker of cell lysis.
The subject of assay [6] is H9c2. The assay is described as follows: Antioxidant activity against CoCl2-induced cellular hypoxia injury in rat H9c2 cells assessed as decrease in hypoxia-induced LDH release at 10 uM incubated for 24 hrs in presence of GSSG. In kind it is functional, cell-based.
The test system of assay [7] is H9c2. As to the kind of experiment: Antioxidant activity against CoCl2-induced cellular hypoxia injury in rat H9c2 cells assessed as decrease in hypoxia-induced MDA level at 5 to 10 uM incubated for 24 hrs. In kind it is functional, cell-based. The settings on record: dose 5-10 µM.

Consider `C=CCSSCCC(=O)O[C@H]1CC[C@]2(C)[C@H]3C[C@@H](O)[C@@H]4[C@@H]([C@]5(C)CC[C@@H](C(C)(C)O)O5)CC[C@@]4(C)[C@]3(C)CC[C@H]2C1(C)C`, for which the result (in assay [1]; with Rattus norvegicus; in the assay with H9c2 [4]; in the assay with H9c2 [5]; in the assay with H9c2 [7]) was Active. The values for the Activity entry with H9c2 [2] and in the assay with H9c2 [3] were “Dose-dependent-effect; Exhibited Highest Release Efficiency Among Tested Compounds” and 4.74%, respectively. In the assay with H9c2 [6], the result was inactive.

Source of the values: ChEMBL document CHEMBL6120941, “Discovery of SIRT1-Activating Hydrogen Sulfide Donating Derivatives for Efficient Resistant of Myocardial Ischemic Injury” (J Med Chem, 2024).
